Laboratory results taken from US20190202836A1, “SELECTIVE DUAL INHIBITORS OF PI3 DELTA AND GAMMA PROTEIN KINASES” (Rhizen Pharmaceuticals SA, priority 2014, published 2019).

Legend:
[1] = Plasma protein binding (equilibrium dialysis), dog; assay type: in vitro ADME; conditions: pH 7.4, 37° C.
Procedure: (§1) Below is provided the procedure for measuring plasma protein binding (using an equilibrium dialysis method). 745 μL of plasma was transferred into a 2 ml micro centrifuge tube. To that 5 μL of Compound A1 (150 μM) was added. Samples were mixed in the table top vortexer for 2 minutes. 50 μL plasma (n=2) was transferred in a pre-labeled 1.5 mL micro centrifuge tube treated as 0 hour sample.
(§2) The remaining 650 μL plasma sample were incubated for 30 minutes at 37° C. in a water bath. After 30 minute incubation, 50 μL plasma (n=2) was removed in a pre-labelled 1.5 mL micro centrifuge tube treated as 0.5 hour sample. 200 μL of the plasma sample (n=2) was transferred into the sample chamber which was indicated by the red ring. The red insert was placed into the base plate and 350 μL of buffer was transferred into the buffer chamber. Plates were incubated at 37° C. at approximately 100 RPM on an orbital shaker or 20 RPM on an up-and-down shaker for 4 hours. 50 μL of post dialysis-sample from the buffer and the plasma chambers were transferred into a pre-labelled micro centrifuged tube. 50 μL of plasma was added to the buffer samples and an equal volume of buffer (KH2PO4 Buffer pH 7.4) to the collected plasma samples. 150 μL of methanol containing internal standard (Tolbutamide 250 ng/ml) was added to precipitate the protein and release compound. […]

[2] = Metabolic stability in human liver microsomes; assay type: in vitro ADME; conditions: 1 μM test item, 60 minutes, 37° C., NADPH
Procedure: (§3) Metabolic stability studies were conducted on Compounds A, A1, and A2 as well as Example 128 of WO 2012/151525 using mouse, rat, dog, monkey, and human liver microsomes. The protocol for the studies with mouse, rat, and human liver microsomes (all from BD Gentest, USA) is provided below. 0.4 mg protein was preincubated with 2 mM NADPH (cofactor) in phosphate buffer (pH-7.4) for 15 minutes at 37° C. and then added with 1 μM test item and incubated further for 60 minutes in triplicate. The reaction mixture was terminated with methanol containing an internal standard and centrifuged further to analyze the test item remaining in the supernatant by LC-MS/MS. The percent parent compound remaining was calculated in comparison with similar samples terminated at 0 minutes.

[3] = Metabolic stability in monkey liver microsomes; assay type: in vitro ADME
Procedure: as §3

[4] = system: pAKT in isolated mouse splenocytes; experiment: Assay 6C: Inhibition of AKT phosphorylation in isolated mouse splenocytes; assay type: cell-based; conditions: Splenocyte, 0.5 h, LPS 20 μg/mL, 30 minutes, ELISA, read-out: EC50, reduction in phosphorylation of AKT
Procedure: The PI3K pathway is regulated downstream by AKT, a serine-threonine kinase that modulates several oncogenic processes such as cell proliferation, growth, and survival. Because the spleen is a repertoire for vast quantities of B- and T-lymphocytes, inhibition of LPS-induced AKT phosphorylation was determined ex vivo using isolated mouse splenocytes. Cells were plated and incubated with a desired concentration of Compound A1 for 15 minutes followed by induction with LPS (20 μg/mL) for 30 minutes. Following induction, cells were lysed and pAKT was determined by ELISA using pAKT^S473 capture/detection antibody pair and anti-mouse-HRP secondary antibody. Blank subtracted absorbance values were obtained to calculate percent inhibition of pAKT in test samples.

[5] = Oral pharmacokinetics in mice; assay type: in vivo; conditions: mouse, plasma, 10 mg/kg
[6] = Plasma protein binding (equilibrium dialysis), rat; assay type: in vitro ADME; conditions: pH 7.4, 37° C.
Procedure: as §1, §2

[7] = Plasma protein binding (equilibrium dialysis), mouse; assay type: in vitro ADME; conditions: pH 7.4, 37° C.
Procedure: as §1, §2

[8] = molecular target: PI3Kβ (Homo sapiens, UniProt P42338); experiment: Assay 1: Fluorescent (HTRF) determination of PI3 kinase enzyme activity, PI3Kβ; assay type: biochemical
Source text: Phosphoinositide 3 kinases (PI3K) belong to a class of lipid kinases that play a critical role in the regulation of several key cellular processes. The PI3K are capable of phosphorylating the 3-hydroxy position of phosphoinositols thereby generating second messengers involved in downstream signaling events. The homogenous time resolved fluorescence (HTRF) assay allows detection of 3,4,5-triphosphate (PIPS) formed as a result of phosphorylation of phosphotidylinositol 4,5-biphosphate (PIP2) by PI3K isoforms such as α, β, γ or δ.
PI3K isoform activity for α, β, γ or δ was determined using a PI3K human HTRF™ Assay Kit (Millipore, Billerica, Mass.) with modifications. All incubations were carried out at room temperature. 0.5 μl of 40× inhibitor (in 100% DMSO) or 100% DMSO were added to each well of a 384-well white plate (Greiner Bio-One, Monroe, N.C.) containing 14.5 μl 1× reaction buffer/PIP2 (10 mM MgCl2, 5 mM DTT, 1.38 μM PIP2) mix with or without enzyme, followed by 5 μl/well of 400 μM ATP and incubated for an additional 30 minutes. The reaction was terminated by adding 5 μl/well stop solution (Millipore, Billerica, Mass.). 5 μl of detection mix (Millipore, Billerica, Mass.) was then added to each well and incubated for 6-18 hours in the dark. HRTF ratio was measured on a microplate reader (BMG Labtech., Germany) at an excitation wavelength of 337 nm and emission wavelengths of 665 and 615 nm with an integration time of 400 msec counting delay of 50 msec.

PI3Kβ, sequence (P42338 whole entry, canonical isoform): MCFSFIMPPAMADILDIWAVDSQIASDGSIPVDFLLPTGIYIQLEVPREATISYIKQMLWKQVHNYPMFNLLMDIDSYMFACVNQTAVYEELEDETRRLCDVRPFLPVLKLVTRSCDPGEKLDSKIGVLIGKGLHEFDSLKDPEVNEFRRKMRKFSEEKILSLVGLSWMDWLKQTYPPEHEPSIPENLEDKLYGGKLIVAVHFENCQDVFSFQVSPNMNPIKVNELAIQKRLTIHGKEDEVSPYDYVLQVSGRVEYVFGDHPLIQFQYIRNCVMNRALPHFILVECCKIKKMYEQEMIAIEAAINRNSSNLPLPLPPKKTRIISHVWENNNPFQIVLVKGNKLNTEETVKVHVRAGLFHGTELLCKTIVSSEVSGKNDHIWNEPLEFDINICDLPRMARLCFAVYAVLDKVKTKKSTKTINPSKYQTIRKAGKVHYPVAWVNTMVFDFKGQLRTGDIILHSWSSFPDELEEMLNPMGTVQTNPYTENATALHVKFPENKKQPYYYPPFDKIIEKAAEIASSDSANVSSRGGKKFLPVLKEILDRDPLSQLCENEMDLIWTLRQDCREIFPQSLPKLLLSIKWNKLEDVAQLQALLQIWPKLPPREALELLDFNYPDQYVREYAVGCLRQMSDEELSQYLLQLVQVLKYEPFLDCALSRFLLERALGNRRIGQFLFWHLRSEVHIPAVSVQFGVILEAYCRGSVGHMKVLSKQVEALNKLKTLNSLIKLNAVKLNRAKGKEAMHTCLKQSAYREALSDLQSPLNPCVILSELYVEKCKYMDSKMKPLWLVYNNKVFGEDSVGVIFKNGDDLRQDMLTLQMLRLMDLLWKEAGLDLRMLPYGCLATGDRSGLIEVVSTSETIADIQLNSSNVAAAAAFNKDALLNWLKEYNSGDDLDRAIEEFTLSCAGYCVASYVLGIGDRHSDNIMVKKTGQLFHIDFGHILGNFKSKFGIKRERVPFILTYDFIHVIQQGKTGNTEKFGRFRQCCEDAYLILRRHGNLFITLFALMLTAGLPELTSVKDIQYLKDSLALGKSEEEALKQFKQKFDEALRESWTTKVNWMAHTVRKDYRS
PI3Kβ, sequence (P27986 whole entry partner, canonical isoform): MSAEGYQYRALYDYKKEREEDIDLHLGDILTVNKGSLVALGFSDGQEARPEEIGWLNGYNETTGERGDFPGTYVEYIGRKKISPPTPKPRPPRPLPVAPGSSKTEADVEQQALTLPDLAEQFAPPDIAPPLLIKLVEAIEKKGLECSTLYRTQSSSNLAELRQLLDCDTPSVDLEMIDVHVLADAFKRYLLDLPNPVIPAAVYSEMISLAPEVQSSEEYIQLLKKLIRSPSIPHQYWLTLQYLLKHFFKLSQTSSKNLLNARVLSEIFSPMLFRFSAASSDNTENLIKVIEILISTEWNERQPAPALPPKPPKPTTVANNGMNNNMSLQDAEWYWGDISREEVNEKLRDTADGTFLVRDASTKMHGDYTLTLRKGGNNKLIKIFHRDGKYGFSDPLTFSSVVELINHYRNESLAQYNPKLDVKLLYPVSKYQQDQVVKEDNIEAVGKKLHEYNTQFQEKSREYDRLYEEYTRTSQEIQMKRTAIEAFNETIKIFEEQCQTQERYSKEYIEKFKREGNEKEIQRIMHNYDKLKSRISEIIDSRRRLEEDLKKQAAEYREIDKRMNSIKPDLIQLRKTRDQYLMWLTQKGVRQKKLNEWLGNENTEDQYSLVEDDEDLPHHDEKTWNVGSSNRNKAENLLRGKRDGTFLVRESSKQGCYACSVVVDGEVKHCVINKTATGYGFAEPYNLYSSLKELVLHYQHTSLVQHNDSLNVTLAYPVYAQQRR

## COc1ccc(-c2nn([C@@H](C)c3oc4cccc(F)c4c(=O)c3-c3cccc(F)c3)c3ncnc(N)c23)cc1NS(C)(=O)=O [Compound A1, (S)—N-(5-(4-amino-1-(1-(5-fluoro-3-(3-fluorophenyl)-4-oxo-4H-chromen-2-yl)ethyl)-1H-pyrazolo[3,4-d]pyrimidin-3-yl)-2-methoxyphenyl)methanesulfonamide]
[1]
  fraction unbound at 4 h, 1 μM: 0.0415
[2]
  Metabolic stability in liver microsomes (percent parent compound remaining), Human: 95.7%
[3]
  Metabolic stability in liver microsomes (percent parent compound remaining), Monkey: 78.8%
[4]
  EC50: 347 nM
[5]
  AUC(0-t): 7.49 µM·h
  Cmax: 3.78 µM
  Tmax: 30 min
  half-life: 87 min
[6]
  fraction unbound at 4 h, 1 μM: 0.0096
[7]
  fraction unbound at 4 h, 1 μM: 0.0239
[8]
  inhibition at 1 µM: 46.8%
[8]; HTRF enzyme assay
  IC50: 1360 nM
[8]; selectivity profile, enzyme IC50
  Fold-Selectivity PI3Kβ: > 45 fold
